System: BMDMs
Assay: UNC2025 with PS:PLG particle treatment of LPS-inflamed primary macrophages
Type: cell-based, mice
Conditions: LPS 1 ng/mL, PS:PLG 1:10 cell to particle ratio
Protocol: FIG. 10 depicts TNF-α secreted by BMDMs pre-treated with UNC2025 followed by a co-treatment with LPS (1 ng/mL) and PS:PLG (1:10 cell to particle ratio).
FIG. 11 depicts IL-6 secreted by BMDMs pre-treated with UNC2025 followed by a co-treatment with LPS (1 ng/mL) and PS:PLG (1:10 cell to particle ratio).
FIG. 12 depicts IL-10 secreted by BMDMs pre-treated with UNC2025 followed by a co-treatment with LPS (1 ng/mL) and PS:PLG (1:10 cell to particle ratio).
This effect is not limited to UNC2025 but applicable to a broad range of bioactive molecules including small molecules, nucleic acids, peptides, lipids, glycans, etcetera.

## CCCCNc1ncc2c(-c3ccc(CN4CCN(C)CC4)cc3)cn([C@H]3CC[C@H](O)CC3)c2n1 [UNC2025]
  anti-inflammatory response of PS:PLG particle treatment with co-delivery of small molecule (TNF-α, IL-6, IL-10): synergistically enhanced

— US20230301925A1, “PHOSPHOLIPID PRESENTING PARTICLES FOR CELL TARGETING IN THERAPY AND DIAGNOSTICS” (UNIVERSITY OF SOUTH CAROLINA, priority 2022, published 2023)
